{
  "source": "patent US20060147569A1",
  "about": "“Anti-depression formulations” (priority 2005, published 2006)",
  "format_in_all_cases": "in vivo",
  "key": {"[1]": {"molecular_target": "T1, brain MAO-A (Rattus norvegicus, UniProt P21396)", "T1 construct": "Rat brain mitochondrial fractions were prepared; from tissue; host or cells: rat brain mitochondrial fraction", "T1 sequence (P21396 1-526)": "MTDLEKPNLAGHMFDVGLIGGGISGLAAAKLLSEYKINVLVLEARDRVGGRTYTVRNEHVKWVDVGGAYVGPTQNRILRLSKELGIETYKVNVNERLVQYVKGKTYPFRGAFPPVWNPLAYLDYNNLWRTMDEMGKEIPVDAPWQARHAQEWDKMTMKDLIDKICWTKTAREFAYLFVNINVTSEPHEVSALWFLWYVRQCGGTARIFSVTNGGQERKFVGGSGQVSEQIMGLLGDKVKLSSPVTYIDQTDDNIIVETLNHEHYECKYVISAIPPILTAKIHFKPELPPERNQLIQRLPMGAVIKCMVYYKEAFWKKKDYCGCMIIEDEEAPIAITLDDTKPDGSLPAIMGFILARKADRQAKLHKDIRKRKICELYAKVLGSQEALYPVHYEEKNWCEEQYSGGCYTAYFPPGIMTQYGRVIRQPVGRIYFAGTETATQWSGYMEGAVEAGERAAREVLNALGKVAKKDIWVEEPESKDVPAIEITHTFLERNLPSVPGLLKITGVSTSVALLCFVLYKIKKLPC", "experiment": "Brain MAO-A activity in CMS-treated rats", "settings": "brain of CMS-treated rats, 10 mg/kg oral daily for 6 weeks", "procedure": "(§1) 3. Administration and Doses • Non CMS-treated Saline group: 10 ml/kg/day. • CMS-treated Saline group: 10 ml/kg/day. • Composition I (200) group: 200 mg/kg/day. • Composition I (150) group: 150 mg/kg/day. • Fluoxetine group (positive control): 10 mg/kg/day.\n(§2) Animals therein were divided randomly into the following four subgroups: • (1) Composition I (200) group: received composition I at 200 mg/kg/day; • (2) Composition I (150) group: received composition I at 150 mg/kg/day; • (3) Fluoxetine group: received fluoxetine 10 mg/kg/day; (positive control); • (4) CMS-treated saline group: received saline 10 mL/kg/day. (negative control).\n(§3) 24 h after the last test of sucrose intake, between 10:00 a.m. and 11:00 a.m., all animals were decapitated quickly to get venous blood. Serum was separated by centrifugation at 3000 rpm and stored at −20° C. until assay of cortisol concentration. Brain tissues were rapidly removed on the ice-plate. The tissues were washed with cold saline, blotted dry and stored at −80° C. until assays of monoamine oxidase A and B (MAO-A and MAO-B) activity.\n(§4) Rat brain mitochondrial fractions were prepared following the procedure described in Schurr and Livne, 1976. MAO activity was assessed by spectrophotometer as described in Yu et al., 2002. […] The organic phase was measured at wavelength of 280 nm and 242 nm for MAO-A and MAO-B assay with spectrophotometer, respectively. […]"}, "[2]": {"molecular_target": "T2, brain MAO-B (Rattus norvegicus, UniProt P19643)", "T2 construct": "Rat brain mitochondrial fractions were prepared; from tissue; host or cells: rat brain mitochondrial fraction", "T2 sequence (P19643 1-520)": "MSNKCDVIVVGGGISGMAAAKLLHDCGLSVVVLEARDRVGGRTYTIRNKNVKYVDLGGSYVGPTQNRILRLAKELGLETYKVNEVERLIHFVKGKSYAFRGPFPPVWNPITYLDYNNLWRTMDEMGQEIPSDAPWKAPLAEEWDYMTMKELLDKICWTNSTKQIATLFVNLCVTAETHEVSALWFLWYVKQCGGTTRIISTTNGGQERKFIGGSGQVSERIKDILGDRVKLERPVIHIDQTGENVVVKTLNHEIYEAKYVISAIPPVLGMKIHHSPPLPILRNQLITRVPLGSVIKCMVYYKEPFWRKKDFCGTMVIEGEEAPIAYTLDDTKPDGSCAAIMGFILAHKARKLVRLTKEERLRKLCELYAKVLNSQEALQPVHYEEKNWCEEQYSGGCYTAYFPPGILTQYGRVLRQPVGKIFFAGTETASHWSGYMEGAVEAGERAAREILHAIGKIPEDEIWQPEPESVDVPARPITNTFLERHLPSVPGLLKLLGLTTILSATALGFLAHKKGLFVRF", "experiment": "Brain MAO-B activity in CMS-treated rats", "settings": "brain of CMS-treated rats, 10 mg/kg oral daily for 6 weeks", "procedure": "as §1, §2, §3, §4"}, "[3]": {"tested_on": "Male ICR mice", "experiment": "Tail suspension test (TST) in mice", "settings": "oral once daily, 26 mg/kg", "excerpt": "A major symptom of depression is decrease of motivational behaviors. In the TST model, the tail-suspended mice struggle in attempt to overcome the abnormal body positions, which is a motivational behavior. After a period of time, the mice started to show occasional immobility, representing a “despair” mental state. The immobility is regarded as “failure to adapt to stress” and can be served as an indicator of the level of depression. The effectiveness of anti-depression drugs could be derived by measuring the duration of immobility after the mice had been tail-suspended for a period of time. The model is sensitive to anti-depression drugs and is widely adopted as a means to screen such drugs. (Steru L, Chermat R, Thierry B, Simon P. 1985.)\n(§5) Male ICR mice (26±2 g) were used. The mice were housed in polycarbonate cages. […]\n(§6) The animals were deprived of food but not water for 1.5 h prior to drug administration of. […] The volume of the suspension administered was based on body weight measured immediately prior to each dose, respectively. […]\nThe tail suspension test was based on the method of Steru (Steru, et al., 1985). […] The duration of immobility time was recorded during the final 4 min interval of the test. […]\n(§7) All data were expressed as mean±SEM, and analyzed using one-way analysis of variance (ANOVA). […]"}, "[4]": {"tested_on": "Male ICR mice", "experiment": "Forced swimming test (FST) in mice", "settings": "oral once daily, 26 mg/kg", "excerpt": "A major symptom of depression is decrease of motivational behaviors. In the FST model, the mice were forced to swim in a restricted space. First, they struggle in attempt to escape, which is a motivational behavior. After a period of time, the mice started to show occasional immobility, representing a “despair” mental state. The immobility is regarded as “failure to adapt to stress” and can be served as an indicator of the level of depression. The effectiveness of anti-depression drugs could be derived by measuring the duration of immobility after the mice had been forced to swim for a period of time. The model is sensitive to anti-depression drugs and is widely adopted as a means to screen such drugs. (Porsolt et al., 1977)\nas §5, §6\nThe studies were carried out on mice according to the method of Porsolt (Porsolt, et al., 1977). […] The duration of immobility time was measured during the final 4 min interval of the test. […]\nas §7"}, "[5]": {"tested_on": "CMS-treated rats", "experiment": "Sucrose intake test in chronic mild stress (CMS) model", "settings": "for sucrose intake: CMS-treated rats, 10 mg/kg oral daily", "excerpt": "In the CMS model, rats are exposed sequentially, over a period of weeks, to a variety of mild stressors, and the measure most commonly used to track the effects is a decrease in consumption of a palatable sweet solution. This […] of antidepressants to increase sucrose intake in CMS model of rats. […] These impairments could be reversed by chronic administration of antidepressants such as tricyclic antidepressants, selective serotonin reuptake inhibitors and monoamine oxidase inhibitors. […] (Willner P. 1997)\nMale Wistar rats, weighing 180-220 g at the start of the experiment, were used in the experiments. During the one week before experiment, each rat was housed individually in a home cage, and had free access to food and water. They were maintained on a 12 h light/dark cycle under controlled temperature 25±2° C. and tested in the light phase.\nas §1\nThe above substances at various concentrations were dissolved in saline. The volume of the suspension administered was based on body weight measured immediately prior to each dose, respectively. All groups were administered orally for six weeks, once per day. All groups except for Non-CMS-treated saline group received CMS treatment as described below.\nAll animals were trained to consume 1% (w/v) sucrose solution in water. The training was conducted twice a week for consecutive 3 weeks. In the training, the rats in the home cage were deprived of food and water for 14 hours. After 14 hours, about 30 ml of 1% (w/v) sucrose solution in a pre-weighed bottled was placed in the home cages. 1 hour later, the bottle was taken out from the cage and weighed. The sucrose intake was calculated as follows: […]\nCalculation: Weight of Bottle Before Intake (g)—Weight of Bottle After Intake (g)\nAfter three weeks of training, when the sucrose intake of rats was stabilized, the rats started to receive further treatment. During the whole treatment period, the sucrose intakes of rats were monitored once every week from 9:00 a.m. to 10:00 a.m. with the same procedures as described above.\nAfter the three-weeks training, the rats were randomly divided into two groups: the non-CMS treated group and CMS-treated group. The stress group of animals was subjected to the CMS procedure for a period of four consecutive weeks. Each week of stress regime is consisted of six different stress situations. They involved two periods of food and water deprivation, two periods of 45 o cage tilt, two periods of intermittent illumination (lights on and off every 2 h), two periods of soiled cage (200 mL water in sawdust bedding), two periods of paired housing, and two periods of low intensity stroboscopic illumination (150 flashes/min). All of the stressors were 12-14 h of duration and were applied individually and sequentially, day and night.\nas §2\nThe rats in non-CMS treated group received saline solution at 10 mL/kg orally. All administrations were given orally once daily at 10:00 a.m. for consecutive 6 weeks."}, "[6]": {"tested_on": "serum cortisol", "experiment": "Serum cortisol level in CMS-treated rats (radioimmunoassay)", "procedure": "as §1, §2, §3\nSerum cortisol level was assayed using a radioimmunoassay method following the manufacturer's instructions. (Manufacturer: Bejing Furui Biotechnology Company, P.R. China. Product code: FR-FJ-055)."}},
  "note": "Where a name gives a salt, the structure may show the parent alone.",
  "data": [
    {"smiles": "CNCCC(Oc1ccc(C(F)(F)F)cc1)c1ccccc1", "note": "(stereo not drawn) [Fluoxetine, Fluoxetine Hydrochloride]", "values": [
      {"measurement": "MAO activity A", "setting": "[1]", "result": "78.05 ± 3.68", "unit": "U/g protein"},
      {"measurement": "inhibition at 10 mg/kg", "setting": "[1]; rat", "result": 16.4, "unit": "%"},
      {"measurement": "MAO activity B", "setting": "[2]", "result": "54.50 ± 3.56", "unit": "U/g protein"},
      {"measurement": "inhibition at 10 mg/kg", "setting": "[2]; rat", "result": 54, "unit": "%"},
      {"measurement": "Duration of immobility", "setting": "[3]; 3 days", "result": "23.2 ± 5.2", "unit": "s"},
      {"measurement": "Duration of immobility", "setting": "[3]; 7 days", "result": "28.8 ± 6.4", "unit": "s"},
      {"measurement": "Duration of immobility", "setting": "[4]; 3 days", "result": "67.6 ± 10.2", "unit": "s"},
      {"measurement": "Duration of immobility", "setting": "[4]; 7 days", "result": "67.1 ± 8.9", "unit": "s"},
      {"measurement": "recovery of the sucrose intake (in words)", "setting": "[5]; CMS rats, fluoxetine-treated (10 mg/kg)", "result": "not as strong as those treated with Composition (I)"},
      {"measurement": "sucrose intake", "setting": "[5]; week 0 of drug treatment", "result": "5.3 ± 1.4", "unit": "g"},
      {"measurement": "sucrose intake", "setting": "[5]; week 1", "result": "5.5 ± 1.3", "unit": "g"},
      {"measurement": "sucrose intake", "setting": "[5]; week 2", "result": "5.9 ± 1.4", "unit": "g"},
      {"measurement": "sucrose intake", "setting": "[5]; week 3", "result": "7.3 ± 1.5", "unit": "g"},
      {"measurement": "sucrose intake", "setting": "[5]; week 4", "result": "8.9 ± 1.1", "unit": "g"},
      {"measurement": "sucrose intake", "setting": "[5]; week 5", "result": "10.4 ± 1.3", "unit": "g"},
      {"measurement": "sucrose intake", "setting": "[5]; week 6", "result": "13.9 ± 1.3", "unit": "g"},
      {"measurement": "effect on serum cortisol levels (in words)", "setting": "[6]; CMS-treated rats, fluoxetine (10 mg/kg)", "result": "did not cause any significant alteration"},
      {"measurement": "Cortisol level", "setting": "[6]; serum of CMS-treated rats, 10 mg/kg oral daily for 6 weeks", "result": "28.76 ± 0.56", "unit": "ng/mL"}
    ]}
  ]
}
